For one experiment, the target named is Hsc70 (Mus musculus, UniProt P63017). Description: DRaCALA with [α-32P]ATP. Type of experiment: binding.
The target in the next experiment is Hsc70 C17W (Mus musculus, UniProt P63017, C17W). Put plainly: DRaCALA with [α-32P]ATP. The experiment is classed as binding.

The results in this text go back to PMC5839340 (Biochemistry, 2018).

Chain of Hsc70 (P63017 5-554): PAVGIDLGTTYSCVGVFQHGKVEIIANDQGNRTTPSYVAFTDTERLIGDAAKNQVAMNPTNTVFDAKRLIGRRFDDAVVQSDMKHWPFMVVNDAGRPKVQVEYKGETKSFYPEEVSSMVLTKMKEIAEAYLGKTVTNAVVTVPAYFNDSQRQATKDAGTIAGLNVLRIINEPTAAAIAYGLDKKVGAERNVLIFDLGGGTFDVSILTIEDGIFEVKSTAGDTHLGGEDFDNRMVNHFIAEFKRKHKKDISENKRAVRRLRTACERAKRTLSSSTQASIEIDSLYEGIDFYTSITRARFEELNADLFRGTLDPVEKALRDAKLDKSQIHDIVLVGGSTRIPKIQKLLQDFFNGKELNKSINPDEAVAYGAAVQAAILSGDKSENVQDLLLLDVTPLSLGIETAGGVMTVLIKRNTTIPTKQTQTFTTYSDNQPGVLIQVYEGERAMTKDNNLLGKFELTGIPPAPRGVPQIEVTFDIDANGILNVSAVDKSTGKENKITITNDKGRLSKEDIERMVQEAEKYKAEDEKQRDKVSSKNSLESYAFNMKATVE
Chain of Hsc70 C17W (P63017 5-554 C17W): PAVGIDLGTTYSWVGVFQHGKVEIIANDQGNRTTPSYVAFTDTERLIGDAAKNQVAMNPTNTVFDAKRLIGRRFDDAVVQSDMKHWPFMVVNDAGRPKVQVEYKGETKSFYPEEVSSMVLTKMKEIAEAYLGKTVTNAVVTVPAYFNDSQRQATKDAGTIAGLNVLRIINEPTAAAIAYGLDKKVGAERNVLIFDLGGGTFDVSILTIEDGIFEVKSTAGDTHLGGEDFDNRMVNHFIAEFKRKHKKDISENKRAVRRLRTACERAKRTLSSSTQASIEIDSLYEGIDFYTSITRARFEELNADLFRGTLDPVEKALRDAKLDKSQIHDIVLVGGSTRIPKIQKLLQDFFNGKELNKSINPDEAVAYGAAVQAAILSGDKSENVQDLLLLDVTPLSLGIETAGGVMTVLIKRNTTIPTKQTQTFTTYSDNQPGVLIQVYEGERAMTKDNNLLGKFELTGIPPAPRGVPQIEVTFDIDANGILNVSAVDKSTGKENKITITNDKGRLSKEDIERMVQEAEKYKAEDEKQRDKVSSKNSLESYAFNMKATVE

Turning to `Nc1ncnc2c1ncn2[C@@H]1O[C@H](COP(=O)(O)OP(=O)(O)OP(=O)(O)O)[C@@H](O)[C@H]1O` [ATP], the Kd on Hsc70 came out at 210 ± 40 nM; at Hsc70 C17W it was 160 ± 60 nM.

A word on the Kd: it is the free concentration of one partner at which half of the binding sites on the other are occupied at equilibrium, for simple one-to-one binding. A higher Kd goes with a looser complex.
